The values below come from PMC8881077 (Journal of Enzyme Inhibition and Medicinal Chemistry, 2022).

Each structure is given as a SMILES string. Where two headings read alike, the source gives them in different places.

The target of one data set is T1, ratAChE (Rattus norvegicus, UniProt P37136).
T1 construct: AChE from 5% rat cortex homogenate or human erythrocytes (Sigma Co.); from tissue; host or cells: 5% rat cortex homogenate
T1 sequence (P37136 32-614): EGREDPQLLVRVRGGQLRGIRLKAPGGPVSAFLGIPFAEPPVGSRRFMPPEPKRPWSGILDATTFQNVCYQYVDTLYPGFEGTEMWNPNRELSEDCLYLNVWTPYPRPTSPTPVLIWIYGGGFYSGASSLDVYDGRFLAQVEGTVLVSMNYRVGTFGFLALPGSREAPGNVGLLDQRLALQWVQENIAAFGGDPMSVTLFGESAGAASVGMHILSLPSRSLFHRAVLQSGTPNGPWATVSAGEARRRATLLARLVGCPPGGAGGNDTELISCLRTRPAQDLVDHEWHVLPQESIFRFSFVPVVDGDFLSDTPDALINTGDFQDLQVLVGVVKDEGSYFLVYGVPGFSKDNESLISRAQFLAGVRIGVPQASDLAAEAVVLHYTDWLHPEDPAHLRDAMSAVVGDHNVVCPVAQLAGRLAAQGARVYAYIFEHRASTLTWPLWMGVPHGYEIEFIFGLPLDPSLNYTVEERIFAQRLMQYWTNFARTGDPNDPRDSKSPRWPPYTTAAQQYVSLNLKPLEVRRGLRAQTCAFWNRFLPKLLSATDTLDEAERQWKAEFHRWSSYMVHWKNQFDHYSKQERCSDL
Briefly: biochemical. The conditions noted are these: for IC50: from 5% rat cortex homogenate.

In another data set the target is T2, ratBuChE (Rattus norvegicus, UniProt Q9JKC1).
T2 construct: BuChE from rat serum or human serum (Sigma Co.); from tissue; host or cells: rat serum
The data set is described as follows: ratBuChE inhibition, modified Ellman's method. Format: biochemical.

The conditions of data set [1]: cited from earlier work.
The conditions of data set [2]: for ORAC: Trolox as standard.
Procedure: The skeleton compounds naringenin and apigenin were also evaluated for comparison purposes, and vitamin E analogue Trolox was used as a standard.
The antioxidant potency of target compounds was tested using an oxygen radical absorbance capacity fluorescein (ORAC-FL) assay.
A short description of another data set: in vitro. The conditions noted are these: PAMPA.
The next data set deals with T3, huBuChE (Homo sapiens, UniProt P06276).
T3 construct: BuChE from rat serum or human serum (Sigma Co.); purchased Sigma Co; host or cells: human serum
Briefly: biochemical. The format is biochemical. As to conditions: from human serum; read-out: IC50 ± SD huBuChE.

The target of another data set is huAChE (Homo sapiens, UniProt P22303). Briefly: biochemical. Format: biochemical. Further details: AChE from 5% rat cortex homogenate or human erythrocytes (Sigma Co.); purchased Sigma Co; host or cells: human erythrocytes.
The test system of data set [3] is scopolamine-induced mice memory impairment. The data set is described as follows: Step-down passive avoidance task. As to conditions: 5 mg/kg, scopolamine 3 mg/kg.
Procedure: Sixty mice were randomly divided into six groups. […] After 30 min, memory impairment was induced by administering scopolamine (3 mg/kg).
In data set [4] the target is T4, Aβ1–42 (Homo sapiens, UniProt P05067). The data set is described as follows: Self-induced Aβ1–42 aggregation, Thioflavin T fluorescence. Format: biochemical. As to conditions: tested compounds and Aβ1–42 25 μM.
Source text: (§1) The Thioflavin T-based flurometric assay was employed to test the inhibition potency on self-induced/Cu^2+-induced Aβ1-42 aggregation.
In data set [5] the target is T4, Aβ1–42. The data set is described as follows: Cu^2+-induced Aβ1–42 aggregation, ThT fluorescence. The conditions noted are these: tested compounds and Aβ1–42 25 μM. The format is biochemical.
Procedure: Curcumin was also tested as a referenced compound.
as §1

T4 sequence (P05067 672-713): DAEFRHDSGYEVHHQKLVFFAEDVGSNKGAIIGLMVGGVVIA
T2 sequence (Q9JKC1 24-597): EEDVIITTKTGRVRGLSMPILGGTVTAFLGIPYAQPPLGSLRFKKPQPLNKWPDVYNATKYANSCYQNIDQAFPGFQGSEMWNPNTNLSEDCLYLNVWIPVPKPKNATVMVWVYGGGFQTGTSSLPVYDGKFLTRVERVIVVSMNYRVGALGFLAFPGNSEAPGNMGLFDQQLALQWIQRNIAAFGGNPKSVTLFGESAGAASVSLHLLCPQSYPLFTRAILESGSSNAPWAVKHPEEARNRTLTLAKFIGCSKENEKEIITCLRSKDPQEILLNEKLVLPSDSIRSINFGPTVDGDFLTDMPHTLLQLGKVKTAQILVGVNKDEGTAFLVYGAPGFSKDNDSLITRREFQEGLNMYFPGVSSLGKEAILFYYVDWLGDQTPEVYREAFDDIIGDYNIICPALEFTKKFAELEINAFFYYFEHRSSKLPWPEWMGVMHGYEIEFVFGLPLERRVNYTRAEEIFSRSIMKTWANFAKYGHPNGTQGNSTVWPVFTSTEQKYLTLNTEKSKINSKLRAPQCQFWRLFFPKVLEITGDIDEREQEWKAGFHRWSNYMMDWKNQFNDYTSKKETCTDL
Chain of huAChE (P22303 32-617 isoform P22303-2 limits assumed): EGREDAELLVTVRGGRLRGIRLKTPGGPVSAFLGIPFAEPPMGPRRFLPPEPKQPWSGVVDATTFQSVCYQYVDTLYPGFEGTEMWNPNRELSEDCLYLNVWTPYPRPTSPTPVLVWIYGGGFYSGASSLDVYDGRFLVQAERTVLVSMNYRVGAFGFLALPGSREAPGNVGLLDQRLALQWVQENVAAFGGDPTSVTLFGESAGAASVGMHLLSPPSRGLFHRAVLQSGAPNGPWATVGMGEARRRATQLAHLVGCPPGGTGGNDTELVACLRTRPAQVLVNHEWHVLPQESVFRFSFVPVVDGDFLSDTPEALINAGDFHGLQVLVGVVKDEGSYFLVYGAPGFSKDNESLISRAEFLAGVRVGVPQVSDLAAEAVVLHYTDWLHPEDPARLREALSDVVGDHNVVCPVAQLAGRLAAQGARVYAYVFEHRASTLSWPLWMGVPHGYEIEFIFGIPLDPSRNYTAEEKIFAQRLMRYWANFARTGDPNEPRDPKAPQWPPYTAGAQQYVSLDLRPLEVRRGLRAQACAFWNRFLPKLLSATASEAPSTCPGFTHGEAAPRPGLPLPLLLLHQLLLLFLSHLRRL
T3 sequence (P06276 29-602): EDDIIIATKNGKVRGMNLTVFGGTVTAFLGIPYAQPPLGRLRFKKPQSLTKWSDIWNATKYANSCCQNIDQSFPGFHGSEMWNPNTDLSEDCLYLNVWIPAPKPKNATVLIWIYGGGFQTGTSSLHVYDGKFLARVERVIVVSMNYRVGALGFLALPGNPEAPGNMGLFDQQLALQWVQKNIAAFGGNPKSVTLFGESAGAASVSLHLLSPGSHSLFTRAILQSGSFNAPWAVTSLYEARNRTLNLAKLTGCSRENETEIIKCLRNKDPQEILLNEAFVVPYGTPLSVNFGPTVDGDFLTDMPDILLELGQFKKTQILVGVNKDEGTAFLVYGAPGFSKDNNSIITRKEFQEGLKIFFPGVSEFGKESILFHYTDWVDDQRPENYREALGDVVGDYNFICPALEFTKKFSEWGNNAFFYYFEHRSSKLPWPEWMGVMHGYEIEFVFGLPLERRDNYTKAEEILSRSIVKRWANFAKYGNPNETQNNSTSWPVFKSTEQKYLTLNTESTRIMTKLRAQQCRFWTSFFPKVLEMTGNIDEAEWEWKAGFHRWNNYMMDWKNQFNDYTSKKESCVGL
Procedure for huAChE: (§2) The AChE and BuChE inhibitory activities of the synthesised compounds were evaluated using the Ellman assay with slight modification. AChE from 5% rat cortex homogenate or human erythrocytes (Sigma Co.). BuChE from rat serum or human serum (Sigma Co.).
Procedure for huBuChE: as §2
Procedure for ratAChE: as §2
Procedure for ratBuChE: as §2

At ratAChE (IC50 ± SD ratAChE), `O=C1CC(c2ccc(O)cc2)Oc2cc(O)cc(O)c21` (stereo not shown) [naringenin, 5,7-dihydroxy-2–(4-hydroxyphenyl)-2,3-dihydrochromen-4-one, reference compound] registered an IC50 above 50 µM. The 50% inhibitory concentration (IC50) against ratBuChE was above 50 µM. In data set [1], the oral bioavailability is listed as 15%. In data set [2], the ORAC values was determined as 5.2 eq and the ORAC is on record as 5.2 ± 0.29 μM of Trolox equivalent/μM of tested compound.

Turning to `CCn1cc(C(=O)O)c(=O)c2cc(F)c(N3CCNCC3)cc21` [Norfloxacin, reference compound], in “in vitro”, the apparent permeability (Papp) at 100 μg/mL came out at 0.13 ± 0.01 ×10⁻⁶ cm/s.

Regarding `CCN(CCCCCOc1ccc(-c2cc(=O)c3c(O)cc(OCCCCCN(CC)Cc4ccccc4OC)cc3o2)cc1)Cc1ccccc1OC` [Compound 10l, 7-((5-(ethyl(2-methoxybenzyl)amino)pentyl)oxy)-2–(4-((5-(ethyl(2-methoxybenzyl)amino)pentyl)oxy)phenyl)-5-hydroxy-4H-chromen-4-one], the SI on ratAChE (Selectivity Index = IC50 (BuChE)/IC50 (AChE), rat enzymes) was found to be 23.2; at huAChE (Selectivity Index = IC50 (BuChE)/IC50 (AChE), human enzymes) it was 24.4. The IC50 at ratAChE (read-out: IC50 ± SD ratAChE) worked out at 0.62 ± 0.05 µM; against ratBuChE it was 14.4 ± 0.32 µM; on huBuChE, 2.2 ± 0.18 µM; on huAChE (from human erythrocytes, read-out: IC50 ± SD huAChE) it was 0.09 ± 0.002 µM. Further, the ORAC in [2] is on record as 1.3 ± 0.03 μM of Trolox equivalent/μM of tested compound.

The compound `COc1cc2c(cc1OC)C(=O)C(CC1CCN(Cc3ccccc3)CC1)C2` (stereo not shown) [donepezil, reference compound] came in with a step-down latency in data set [3] of 219.4 s.

Turning to `COc1cc(/C=C/C(=O)CC(=O)/C=C/c2ccc(O)c(OC)c2)ccc1O` [curcumin, reference compound], the inhibition at 25 µM on Aβ1–42 [4] came to 45.9 ± 0.67%; against Aβ1–42 [5] it was 50.6 ± 0.33%.
